Holding throughout (assay type): cell-based
Assay [1] deals with NOS-2 mRNA. The assay can be described thus: NOS-2 mRNA induction in human ONH astrocytes (semi-quantitative RT-PCR). The conditions noted are these: AG82 7 μM, SB202190 380 nM, SN-50 50 μg/ml; for NOS-2 mRNA induced by elevated hydrostatic pressure: elevated hydrostatic pressure 12 hrs, AG18 40 μM. How it is done:
(§1) Twelve normal human (aged 22-51) eyes were obtained within 24 hrs after death. Lamina cribrosa astrocytes were obtained as described previously.^5 The second-passage cell cultures, which had over 95% cells positive for GFAP, were grown to 60-80% confluency and placed in serum free medium for one week before use.
Astrocytes grown on coverslips were placed under sterile, disposable polypropylene cylinders 6 cm high and 3 cm in diameter. Hydrostatic pressure was elevated by 5 cm of serum free medium, conditioned at 37° C. in a 5% CO2 humidified atmosphere. As control, the same number of cells on a coverslip was placed in 140 mm Petri dishes with 0.3 cm height of media in a volume equivalent to that used in the hydrostatic pressure experiments. Both pressurized and control cultures were maintained in a tissue culture incubator at 37° C. with a 5% CO2 humidified atmosphere for various periods. AG82 or AG18 (Calbiochem, Darmstadt, Germany) was added to the cell media 30 min before and during the period of exposure to elevated hydrostatic pressure or IL-1β/IFN-γ at final concentrations of 7 μM or 40 μM, respectively. SB202190 (Calbiochem, Darmstadt, Germany) was added to the cell media 30 min before and during the period of exposure to elevated hydrostatic pressure or IL-1β/IFN-γ at a final concentrations of 380 nM. SN-50 (BioMol, Plymouth Meeting, Pa.) was added to the cell media 30 min before and during the period of exposure to elevated hydrostatic pressure or IL-1β/IFN-γ at a final concentrations of 50 μg/ml. Monoclonal anti-EGFR antibody (Santa Cruz Biotechnology Inc, Santa Cruz, Calif.) which recognizes an EGF receptor cell surface epitope and is an antagonist of EGFR, was added to the cell media 12 hrs before and during the period of exposure to elevated hydrostatic pressure or EGF (100 ng/ml)(Sigma-Aldrich Corp., St. Louis, Mo.) at a working dilution of 1:20. […]
Semi-quantitative RT-PCR was performed as published previously.^8

Assay [2] has as its system NOS-2. The assay can be described thus: NOS-2 protein induction in human ONH astrocytes (immunoblot). The conditions noted are these: for NOS-2 protein induced by elevated hydrostatic pressure: elevated hydrostatic pressure 48 hrs, AG18 40 μM, anti-EGFR antibody 1:20; for induction of NOS-2 in response to cytokines (protein/mRNA not specified): IL-1β/IFN-γ. How it is done: as §1
Astrocytes grown on coverslips were placed under sterile, disposable polypropylene cylinders 6 cm high and 3 cm in diameter. Hydrostatic pressure was elevated by 5 cm of serum free medium, conditioned at 37° C. in a 5% CO2 humidified atmosphere. As control, the same number of cells on a coverslip was placed in 140 mm Petri dishes with 0.3 cm height of media in a volume equivalent to that used in the hydrostatic pressure experiments. Both pressurized and control cultures were maintained in a tissue culture incubator at 37° C. with a 5% CO2 humidified atmosphere for various periods. AG82 or AG18 (Calbiochem, Darmstadt, Germany) was added to the cell media 30 min before and during the period of exposure to elevated hydrostatic pressure or IL-1β/IFN-γ at final concentrations of 7 μM or 40 μM, respectively. SB202190 (Calbiochem, Darmstadt, Germany) was added to the cell media 30 min before and during the period of exposure to elevated hydrostatic pressure or IL-1β/IFN-γ at a final concentrations of 380 nM. SN-50 (BioMol, Plymouth Meeting, Pa.) was added to the cell media 30 min before and during the period of exposure to elevated hydrostatic pressure or IL-1β/IFN-γ at a final concentrations of 50 μg/ml. Monoclonal anti-EGFR antibody (Santa Cruz Biotechnology Inc, Santa Cruz, Calif.) which recognizes an EGF receptor cell surface epitope and is an antagonist of EGFR, was added to the cell media 12 hrs before and during the period of exposure to elevated hydrostatic pressure or EGF (100 ng/ml)(Sigma-Aldrich Corp., St. Louis, Mo.) at a working dilution of 1:20. Astrocytes were stimulated by the addition to the media of 200 U/ml human IFN-γ (Sigma-Aldrich Corp, Saint Louis, Mo.) and 10 ng/ml human IL-1β (Sigma-Aldrich Corp, Saint Louis, Mo.) for 12 or 48 hours.
NOS-2 immunoblot was as described previously.^5 For EGFR and p-EGFR immunoblot,^11 astrocytes were lysed in buffer (20 mm HEPES, pH 7.0, 10 mM KCI, 2 mM MgCl2, 0.5% Nonidet P40, 1 mM Na3VO4, 1 mM PMSF, 0.15 U ml^−1 aprotinin) and homogenized. The non-nuclear and nuclear fractions were separated by centrifugation at 1,500 g for 5 min to sediment the nuclei. The nuclear pellet was washed with the lysis buffer and resuspended in the same buffer containing 0.5 M NaCl to extract nuclear proteins. 20 μg protein of each non-nuclear fraction and 40 μg of each nuclear fraction were separated by 10% SDS-PAGE and transferred to a nitrocellulose membrane. Immunoblotting was performed with specific primary antibody against EGFR and p-EGFR followed by peroxidase-conjugated secondary antibody (Santa Cruz Biotechnology Inc, Santa Cruz, Calif.) and imaged by the enhanced chemiluminescence detection system (Amersham Life Science Inc, Arlington Heights, Ill.).
Background: A western blot detects proteins with antibodies after separation by electrophoresis.

For assay [3], the target named is T1, p-EGFR (Homo sapiens, UniProt P00533). Description: Immunoblot for p-EGFR in nuclear and non-nuclear fractions of human ONH astrocytes exposed to elevated hydrostatic pressure. Conditions: elevated hydrostatic pressure 10 min; AG82 7 μM added 30 min before and during.
Protocol: NOS-2 immunoblot was as described previously.^5 For EGFR and p-EGFR immunoblot,^11 astrocytes were lysed in buffer (20 mm HEPES, pH 7.0, 10 mM KCI, 2 mM MgCl2, 0.5% Nonidet P40, 1 mM Na3VO4, 1 mM PMSF, 0.15 U ml^−1 aprotinin) and homogenized. The non-nuclear and nuclear fractions were separated by centrifugation at 1,500 g for 5 min to sediment the nuclei. […]
The target in assay [4] is T1, p-EGFR. Description: Immunocytochemistry for p-EGFR in cultured human ONH astrocytes exposed to elevated hydrostatic pressure. Conditions: elevated hydrostatic pressure 10 min; AG82 7 μM added 30 min before and during.
Protocol: Astrocytes grown on coverslips were placed under sterile, disposable polypropylene cylinders 6 cm high and 3 cm in diameter. Hydrostatic pressure was elevated by 5 cm of serum free medium, conditioned at 37° C. in a 5% CO2 humidified atmosphere. As control, the same number of cells on a coverslip was placed in 140 mm Petri dishes with 0.3 cm height of media in a volume equivalent to that used in the hydrostatic pressure experiments. Both pressurized and control cultures were maintained in a tissue culture incubator at 37° C. with a 5% CO2 humidified atmosphere for various periods. […]
As described previously,^5 cells grown on coverslips were fixed in 4% paraformaldehyde, incubated with specific primary antibodies against EGFR, p-EGFR or GFAP and appropriate fluorescent conjugated secondary antibodies (Molecular Probes Inc., Eugene, Ore), and visualized by fluorescence microscopy. […]
The mark [5] stands for this setting: AG82 7 μM, SB202190 380 nM, SN-50 50 μg/ml.

“Also recorded” adds a separate entry of the source.

T1 sequence (P00533 25-1210): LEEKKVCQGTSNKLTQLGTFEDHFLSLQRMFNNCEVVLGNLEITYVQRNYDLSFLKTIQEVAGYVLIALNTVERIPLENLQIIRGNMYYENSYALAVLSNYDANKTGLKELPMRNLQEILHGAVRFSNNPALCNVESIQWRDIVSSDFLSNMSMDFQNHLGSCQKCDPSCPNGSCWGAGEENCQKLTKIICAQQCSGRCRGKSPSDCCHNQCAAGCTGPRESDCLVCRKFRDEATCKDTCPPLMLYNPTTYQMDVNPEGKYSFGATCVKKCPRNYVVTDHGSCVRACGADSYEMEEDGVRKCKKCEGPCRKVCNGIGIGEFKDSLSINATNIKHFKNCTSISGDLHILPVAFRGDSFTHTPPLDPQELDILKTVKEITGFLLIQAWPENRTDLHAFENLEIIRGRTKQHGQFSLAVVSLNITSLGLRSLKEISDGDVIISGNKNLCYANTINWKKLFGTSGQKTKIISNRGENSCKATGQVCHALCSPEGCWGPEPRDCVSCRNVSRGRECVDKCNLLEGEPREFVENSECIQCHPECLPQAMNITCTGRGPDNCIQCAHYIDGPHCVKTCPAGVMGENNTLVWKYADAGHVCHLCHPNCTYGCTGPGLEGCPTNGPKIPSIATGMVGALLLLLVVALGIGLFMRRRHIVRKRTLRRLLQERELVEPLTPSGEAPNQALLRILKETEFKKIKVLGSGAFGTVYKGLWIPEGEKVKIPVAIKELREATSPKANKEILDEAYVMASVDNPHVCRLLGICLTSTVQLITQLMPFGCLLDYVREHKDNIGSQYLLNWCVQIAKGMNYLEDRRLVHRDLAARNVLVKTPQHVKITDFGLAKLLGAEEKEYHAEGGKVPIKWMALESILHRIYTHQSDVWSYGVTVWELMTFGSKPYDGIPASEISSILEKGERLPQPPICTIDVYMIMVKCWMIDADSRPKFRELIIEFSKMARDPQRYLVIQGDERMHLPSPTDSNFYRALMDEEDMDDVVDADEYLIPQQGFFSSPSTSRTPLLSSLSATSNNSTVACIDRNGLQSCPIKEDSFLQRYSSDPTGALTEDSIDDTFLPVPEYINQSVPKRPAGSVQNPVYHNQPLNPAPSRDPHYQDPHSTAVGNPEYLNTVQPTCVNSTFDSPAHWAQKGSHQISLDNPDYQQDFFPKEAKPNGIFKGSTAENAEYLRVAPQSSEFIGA

With `N#CC(C#N)=Cc1ccc(O)c(O)c1` [AG18, α-Cyano-(3,4-dihydroxy)cinnamonitrile], the “NOS-2 mRNA induced by elevated hydrostatic pressure” value in assay [1] is “prevented both the increased protein level and the mRNA level of NOS-2; also recorded: significantly blocked the appearances of NOS-2 mRNA and protein”. Moreover, the “NOS-2 protein induced by elevated hydrostatic pressure” value in assay [2] (setting [5]) is “prevented both the increased protein level and the mRNA level of NOS-2; also recorded: significantly blocked the appearances of NOS-2 mRNA and protein”.
As to `N#CC(C#N)=Cc1cc(O)c(O)c(O)c1` [AG82, α-Cyano-(3,4,5-trihydroxy)cinnamonitrile], the “NOS-2 mRNA induced by elevated hydrostatic pressure” value in assay [1] was “almost completely prevented; also recorded: affects the transcription of the NOS-2 gene to mRNA in response to elevated hydrostatic pressure; also recorded: significantly blocked the appearances of NOS-2 mRNA and protein”. In addition, the “tyrosine phosphorylation of EGFR (p-EGFR) in non-nuclear and nuclear extracts by immunoblot” value in assay [3] was “significantly blocked the tyrosine phosphorylation of EGFR in both non-nuclear and nuclear extracts; also recorded: completely prevents the increase in p-EGFR in both nuclear and non-nuclear fractions”. For the same compound, the “immunocytochemical labeling for p-EGFR in response to elevated hydrostatic pressure” value in assay [4] is recorded as “blocked the increased immunocytochemical labeling for p-EGFR in the cytoplasm in response to elevated hydrostatic pressure and, most notably, there was no nuclear labeling for p-EGFR; also recorded: prevents the nuclear labeling for p-EGFR”. Further, the “NOS-2 protein induced by elevated hydrostatic pressure” value in assay [2] (setting [5]) was “significantly prevented the increased protein level of NOS-2; also recorded: significantly blocked the appearance of NOS-2 protein in response to elevated hydrostatic pressure; also recorded: significantly blocked the appearances of NOS-2 mRNA and protein”. Moreover, the “induction of NOS-2 in response to cytokines (protein/mRNA not specified)” value in assay [2] (human optic nerve astrocytes) was “does not inhibit the induction of NOS-2 in response to cytokines”. Further, the “induction of NOS-2 in response to elevated hydrostatic pressure (protein/mRNA not specified)” value in assay [2] (human optic nerve astrocytes, elevated hydrostatic pressure) was “blocks induction of NOS-2 in response to elevated hydrostatic pressure”.
In the case of `Oc1ccc(-c2nc(-c3ccncc3)c(-c3ccc(F)cc3)[nH]2)cc1` [SD202190], the “NOS-2 mRNA induced by cytokines” value in assay [1] (200 U/ml IFN-γ and 10 ng/ml IL-1β, 12 hours) was “affects the transcription of the NOS-2 gene to mRNA in response to cytokines”. In assay [2] (200 U/ml IFN-γ and 10 ng/ml IL-1β, 48 hours, AG82 7 μM, SB202190 380 nM, SN-50 50 μg/ml), the “NOS-2 protein induced by cytokines” value is reported as “significantly blocked the appearance of NOS-2 protein in response to cytokine stimulation”. Moreover, the “induction of NOS-2 in response to cytokines (protein/mRNA not specified)” value in assay [2] (human optic nerve astrocytes) is reported as “blocks the induction of NOS-2 in human optic nerve astrocytes in response to cytokines”.
In the case of “EGF: epidermal growth factor, EGFR ligand (Sigma-Aldrich), added at 100 ng/ml (NSDSECPLSHDGYCLHDGVCMYIEALDKYACNCVVGYIGERCQYRDLKWWELR; UniProt P01133 971-1023, looked up)”, in assay [2] (100 ng/ml EGF in culture medium for 48 hrs, versus non-treated astrocytes), the “NOS-2 protein level in astrocytes treated with EGF (Western blot and immunocytochemistry)” value was “significantly increased; also recorded: increased labeling for NOS-2 and GFAP”.
